Experimental findings from ChEMBL document CHEMBL4837258, “Discovery of Novel UDP-N-Acetylglucosamine Acyltransferase (LpxA) Inhibitors with Activity against Pseudomonas aeruginosa” (J Med Chem, 2021) are described below.

SMILES strings stand for the structures. Converted amounts (≈) assume the structure as drawn.

A short description of one series: physchem. Conditions: 1-octanol/phosphate buffer, pH 7.4.
Series [1] is described as follows: Aqueous solubility of compound incubated for 90 mins under shaking condition. It is filed as physicochemical. Conditions: buffer.
Series [2] can be described thus: AUCinfinity in CD1 mouse at 3 mg/kg, iv pretreated with ABT followed by compound treatment and measured upto 7 hrs by LC-MS/MS analysis. It is filed as ADME, organism-based. More on the design: route intravenous, dose 3 mg/kg, time <=7. Conditions: in vivo.
Series [3] in a line: Volume of distribution at steady state in CD1 mouse at 3 mg/kg, iv measured upto 7 hrs by LC-MS/MS analysis. The series is classed as ADME, organism-based. To be noted: in vivo, read-out: Vdss.
A short description of series [4]: AUCinfinity in CD1 mouse at 3 mg/kg, iv measured upto 7 hrs by LC-MS/MS analysis. Also on record: route intravenous, dose 3 mg/kg, time <=7. To be noted: in vivo. It is filed as ADME, organism-based.
The nature of series [5]: AUCinfinity in CD1 mouse at 85 mg/kg, iv measured upto 7 hrs by LC-MS/MS analysis. The series is classed as ADME, organism-based. Also on record: route intravenous, dose 85 mg/kg, time <=7. To be noted: in vivo.
A short description of series [6]: Oral bioavailability in CD1 mouse at 5 mg/kg measured upto 7 hrs by LC-MS/MS analysis. It is filed as ADME, organism-based. To be noted: in vivo.
Series [7] is described as follows: AUCinfinity in CD1 mouse at 5 mg/kg, po pretreated with ABT followed by compound treatment and measured upto 7 hrs by LC-MS/MS analysis. It is filed as ADME, organism-based. Also on record: route oral, dose 5 mg/kg, time <=7. To be noted: in vivo.
The nature of series [8]: Volume of distribution at steady state in CD1 mouse at 85 mg/kg, iv measured upto 7 hrs by LC-MS/MS analysis. To be noted: in vivo, read-out: Vdss. It is filed as ADME, organism-based.
The nature of series [9]: Volume of distribution at steady state in CD1 mouse at 3 mg/kg, iv pretreated with ABT followed by compound treatment and measured upto 7 hrs by LC-MS/MS analysis. The series is classed as ADME, organism-based. To be noted: in vivo, read-out: Vdss.
The nature of series [10]: AUCinfinity in CD1 mouse at 3 mg/kg, po pretreated with ABT followed by compound treatment and measured upto 7 hrs by LC-MS/MS analysis. It is filed as ADME, organism-based. Also on record: route oral, dose 3 mg/kg, time <=7. Conditions: in vivo.
Series [11] is described as follows: AUCinfinity in CD1 mouse at 1 mg/kg, iv pretreated with ABT followed by compound treatment and measured upto 7 hrs by LC-MS/MS analysis. Also on record: route intravenous, dose 1 mg/kg, time <=7. The series is classed as ADME, organism-based. Conditions: in vivo.
A short description of series [12]: Volume of distribution at steady state in CD1 mouse at 1 mg/kg, iv pretreated with ABT followed by compound treatment and measured upto 7 hrs by LC-MS/MS analysis. The series is classed as ADME, organism-based. Conditions: in vivo, read-out: Vdss.
Series [13] is described as follows: Volume of distribution at steady state in CD1 mouse at 5 mg/kg, iv pretreated with ABT followed by compound treatment and measured upto 7 hrs by LC-MS/MS analysis. It is filed as ADME, organism-based. To be noted: in vivo, read-out: Vdss.
A short description of series [14]: AUCinfinity in CD1 mouse at 30 mg/kg, po pretreated with ABT followed by compound treatment and measured upto 7 hrs by LC-MS/MS analysis. It is filed as ADME, organism-based. Also on record: route oral, dose 30 mg/kg, time <=7. To be noted: in vivo.
A short description of series [15]: AUCinfinity in CD1 mouse at 5 mg/kg, iv pretreated with ABT followed by compound treatment and measured upto 7 hrs by LC-MS/MS analysis. Also on record: route intravenous, dose 5 mg/kg, time <=7. To be noted: in vivo. The series is classed as ADME, organism-based.
A short description of series [16]: Oral bioavailability in CD1 mouse at 3 mg/kg pretreated with ABT followed by compound treatment and measured upto 7 hrs by LC-MS/MS analysis. It is filed as ADME, organism-based. Conditions: in vivo.
Series [17] can be described thus: Oral bioavailability in CD1 mouse at 30 mg/kg pretreated with ABT followed by compound treatment and measured upto 7 hrs by LC-MS/MS analysis. The series is classed as ADME, organism-based. Conditions: in vivo.

The logD is the decadic logarithm of the distribution of all forms, ionised or not, between an organic phase and buffer at a given pH. Higher therefore signals a more lipophilic compound. By solubility is commonly meant the dissolved amount per volume that the medium holds. `N#Cc1ccc(CN(Cc2nnc(N)o2)C(=O)CSc2ccccc2Cl)cn1`: the logD at 2 h, 25 µM in the series “physchem” was 1.4. For the same compound, the concentration in solution in series [1] (solubility at […]) was 340 µg/mL (≈ 820 µM).
The compound `N#Cc1cc(F)c(CN(Cc2nnc(N)o2)C(=O)CSc2cc(F)cc(F)c2Cl)c(F)c1` displayed a log distribution coefficient (logD) at 2 h, 25 µM in the series “physchem” of 2.4. This compound also registered a solubility at […] in [1] of 60 µg/mL (≈ 123 µM).
The like results for `N#Cc1ccc(CN(Cc2nnc(N)o2)C(=O)CSc2ccccc2OC(F)(F)F)c(F)c1` were, in that order, 1.6 and 90 µg/mL (≈ 187 µM).
As to `[2H]C([2H])(Oc1cc(F)cc(F)c1C([2H])([2H])C([2H])([2H])[2H])C(=O)N(Cc1nnc(N)o1)Cc1ccc(C#N)cc1F`, the logD at 2 h, 25 µM in “physchem” stood at 3.
The same measure, in the same setting: for `CCc1ccccc1SCC(=O)N(Cc1ccc(C#N)cc1)Cc1nnc(N)o1` the value was 2.5.
Usually AUC(0-inf) stands for the area under the concentration-time curve extrapolated to infinity. With `[2H]C([2H])(Oc1cc(F)cc(F)c1C([2H])([2H])C([2H])([2H])[2H])C(=O)N(Cc1nnc(N)o1)Cc1ccc(S(N)(=O)=O)cc1F`, the AUC(0-inf) in [2] turned out to be 35300 ng·h/mL; in series [4], 62100 ng·h/mL; in series [5], 24000 ng·h/mL; in [7], 7690 ng·h/mL. Besides, the Vd in [3] was found to be 0.34 L/kg; in series [8], 10.3 L/kg; in series [9], 0.31 L/kg. Besides, in “physchem”, the pH-dependent lipophilicity (logD) at 2 h, 25 µM was found to be 2. This compound came in with a solubility at […] in series [1] of 460 µg/mL (≈ 908 µM). Besides, the bioavailability in series [6] was determined as 7.4%.
As for `[2H]C([2H])(Oc1cc(F)cc(F)c1C([2H])([2H])C([2H])([2H])[2H])C(=O)N(Cc1ccc(C#N)nc1)Cc1nnc(N)o1`, the logD at 2 h, 25 µM in “physchem” came out at 2.1.
With `N#Cc1ccc(CN(Cc2nnc(N)o2)C(=O)CCc2ccccc2)cn1`, the logD at 2 h, 25 µM in “physchem” was 1.5.
For the compound `N#Cc1ccc(CN(Cc2nnc(N)o2)C(=O)CSc2ccccc2Cl)cc1`, in the series “physchem”, the log distribution coefficient (logD) at 2 h, 25 µM amounted to 2. The same compound showed a solubility at […] in series [1] of 120 µg/mL (≈ 290 µM).
As to `Nc1nnc(CN(Cc2ccc(S(N)(=O)=O)cc2F)C(=O)COc2cc(F)cc(F)c2C2CC2)o1`, in “physchem”, the logD at 2 h, 25 µM is 2.1.
In “physchem”, `Nc1nnc(CN(Cc2ccc(O)nc2)C(=O)COc2cc(F)cc(F)c2C2CC2)o1` returned a pH-dependent lipophilicity (logD) at 2 h, 25 µM of 2.2. The compound also displayed a solubility at […] in series [1] of 150 µg/mL (≈ 348 µM).
Turning to `CCc1c(F)cc(F)cc1O[C@H](C)C(=O)N(Cc1nnc(N)o1)Cc1ccc(C#N)cc1F`, the log distribution coefficient (logD) at 2 h, 25 µM in the series “physchem” is 3.
Still for that read-out and setting: as for `N#Cc1ccc(CN(Cc2nnc(N)o2)C(=O)COc2cc(F)cc(F)c2C2CC2)cn1`, the figure is 2.2; as for `CCc1c(F)cc(F)cc1OCC(=O)N(Cc1nnc(N)o1)Cc1ccc(S(N)(=O)=O)cc1F`, 2.1.
Still for that read-out and setting: for `N#Cc1ccc(CN(Cc2nnc(N)o2)C(=O)COc2cc(F)cc(F)c2Cl)cn1` the value was 1.4.
`Nc1nnc(CN(Cc2ccc(S(N)(=O)=O)cc2F)C(=O)CSc2cc(F)cc(F)c2Cl)o1` showed a logD at 2 h, 25 µM in the series “physchem” of 1.8. In addition, the solubility at […] in series [1] was 330 µg/mL (≈ 632 µM).
Turning to `N#Cc1ccc(CN(Cc2nnc(N)o2)C(=O)CSc2ccccc2CC(F)(F)F)c(F)c1`, the logD at 2 h, 25 µM in “physchem” is 2.3. Also, the concentration in solution in [1] (solubility at […]) came to 90 µg/mL (≈ 188 µM).
Compound `N#Cc1ccc(CN(Cc2nnc(N)o2)C(=O)CSc2ncccc2Cl)cn1` registered a logD at 2 h, 25 µM in “physchem” of 1.1.
Turning to `CCc1c(F)cc(F)cc1OCC(=O)N(Cc1ccc(C#N)cc1)Cc1nnc(N)o1`, the total exposure AUC(0-inf) in series [10] is 323 ng·h/mL; in [11] it was 218 ng·h/mL; in [14], 9180 ng·h/mL; in [15], 1040 ng·h/mL. Also, the Vd in series [12] is 3.97 L/kg; in [13], 3.3 L/kg. In addition, the bioavailability in series [16] came out at 48.6%; in [17], 138%. The compound also yielded a logD at 2 h, 25 µM in the series “physchem” of 2.8.
`CCc1c(F)cc(F)cc1OCC(=O)N(Cc1nnc(N)o1)Cc1ccc(C#N)cc1F` returned a log distribution coefficient (logD) at 2 h, 25 µM in the series “physchem” of 2.7.
On to `N#Cc1ccc(CN(Cc2nnc(N)o2)C(=O)CSc2cc(F)cc(F)c2Cl)c(F)c1`, for which, in “physchem”, the logD at 2 h, 25 µM came to 2.6.
Regarding `N#Cc1ccc(CN(Cc2nnc(N)o2)C(=O)COc2ccccc2Cl)cn1`, in the series “physchem”, the log distribution coefficient (logD) at 2 h, 25 µM worked out at 1. In series [1], the solubility at […] is 850 µg/mL (≈ 2130 µM).
